Test results as given in patent US12123010B2, “Plants having increased tolerance to herbicides” (BASF SE, priority 2017, dated 2024).
Values joined by “and” are separate entries in the source; they are usually repeats but may differ in a detail not shown here. Equal entries are not always repeated.

What was measured:
[1] = system: Transgenic T2 or T3 Soybean plants harbouring PPO inhibitor tolerance trait; experiment: Soybean Trial, post spray, injury score 14 DAT; assay type: in vivo
Experimental: Soybean cv Jake is transformed as previously described by Siminszky et al., Phytochem Rev. 5:445-458 (2006). After regeneration, transformants are transplanted to soil in small pots, placed in growth chambers (16 hr day/8 hr night; 25° C. day/23° C. night; 65% relative humidity; 130-150 microE m-2 s-1) and subsequently tested for the presence of the T-DNA via Taqman analysis. After a few weeks, healthy, transgenic positive, single copy events are transplanted to larger pots and allowed to grow in the growth chamber. An optimal shoot for cutting is about 3-4 inches tall, with at least two nodes present. Each cutting is taken from the original transformant (mother plant) and dipped into rooting hormone powder (indole-3-butyric acid, IBA). The cutting is then placed in oasis wedges inside a bio-dome. The mother plant is taken to maturity in the greenhouse and harvested for seed. Wild type cuttings are also taken simultaneously to serve as negative controls. The cuttings are kept in the bio-dome for 5-7 days and then transplanted to 3 inch pots and then acclimated in the growth chamber for two more days. Subsequently, the cuttings are transferred to the greenhouse, acclimated for approximately 4 days prior to spray. T0 or 2-week old T1 plants are sprayed with a treatment of the uracilpyridines as disclosed SUPRA and photosynthesis inhibitor diuron as negative control. Herbicide injury evaluations are taken at 2, 7, 14 and 21 days after treatment.
Transgenic T2 or T3 Soybean plants harbouring PPO inhibitor tolerance trait, were sprayed post with the indicated amount of uracilpyridine+1% (v/v) MSO. Evaluation performed 14 Days After Treatment (DAT) and shown as injury (0-9) relative to non-transgenic treated plants. Injury Scale: 0-9, 0=no imjury, 9=maximum injury. Note: segregating lines.

[2] = system: Transgenic T2 Arabidopsis plants harboring PPO inhibitor tolerance trait; experiment: Lab based germination assay in 48-well plates (Table i); assay type: in vivo, Arabidopsis thaliana; details: construct AMATU_PPO2_TP_hemG (Escherichia coli); in comparison to wild type plants
[3] = target: Wild Type PPO Enzyme (Amaranthus PPO2, SEQ ID NO: 1) (Amaranthus tuberculatus, UniProt Q0NZW9); experiment: PPO enzyme assay (recombinant), wild type; assay type: biochemical
[4] = system: Transgenic T2 Arabidopsis plants and ARBTH WT MC24 non-transgenic; experiment: Greenhouse post spray test, injury 14 DAT (Tables ii, iii); assay type: in vivo, Arabidopsis thaliana; details: for pest or weed control at 50 g/ha / pest or weed control at 100 g/ha / pest or weed control at 200 g/ha / pest or weed control at 1 g/ha / pest or weed control at 5 g/ha / pest or weed control at 10 g/ha / pest or weed control at 30 g/ha / pest or weed control at 80 g/ha: Arabidopsis thaliana, 336 h;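 on all read-outs here: value is percent injury to the sprayed plants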
[5] = system: Variant PPO Enzyme R128A, F420M (Amaranthus PPO2); assay type: biochemical; details: variant R128A, F420M vs wild type
[6] = system: Variant PPO Enzyme F420M (Amaranthus PPO2); experiment: biochemical; assay type: biochemical; details: variant F420M vs wild type
[7] = system: Variant PPO Enzyme R128A, F420V (Amaranthus PPO2); experiment: biochemical; assay type: biochemical; details: variant R128A, F420V vs wild type
[8] = Table iii, ALOMY_PPO2_R137L_F438M (unnamed lines), 50 g ai/ha
[9] = Table iii, ALOMY_PPO2_R137L_F438M (unnamed lines), 100 g ai/ha

Chain of Wild Type PPO Enzyme (Amaranthus PPO2, SEQ ID NO: 1) (Q0NZW9 1-534): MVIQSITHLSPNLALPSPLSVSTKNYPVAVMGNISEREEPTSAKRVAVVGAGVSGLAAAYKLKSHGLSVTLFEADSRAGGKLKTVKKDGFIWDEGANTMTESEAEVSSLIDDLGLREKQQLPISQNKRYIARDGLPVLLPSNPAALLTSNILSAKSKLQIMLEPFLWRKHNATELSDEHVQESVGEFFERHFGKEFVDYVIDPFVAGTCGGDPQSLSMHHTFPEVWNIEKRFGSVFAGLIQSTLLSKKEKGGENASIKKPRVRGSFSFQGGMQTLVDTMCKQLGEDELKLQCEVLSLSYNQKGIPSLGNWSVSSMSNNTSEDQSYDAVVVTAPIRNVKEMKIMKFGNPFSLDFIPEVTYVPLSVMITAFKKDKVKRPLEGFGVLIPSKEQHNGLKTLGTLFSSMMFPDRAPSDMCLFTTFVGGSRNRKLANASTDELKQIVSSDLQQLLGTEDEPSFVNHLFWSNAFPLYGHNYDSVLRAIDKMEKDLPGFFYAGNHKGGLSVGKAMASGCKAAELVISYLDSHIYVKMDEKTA

Question: What does the source list for `CCOC(=O)COc1ccccc1Oc1nc(-n2c(=O)cc(C(F)(F)F)n(C)c2=O)c(F)cc1Cl` [Uracilpyridine 4, ethyl 2-[2-[[3-chloro-5-fluoro-6-[3-methyl-2,6-dioxo-4-(trifluoromethyl)pyrimidin-1-yl]-2-pyridyl]oxy]phenoxy]acetate]?
Answer: injury (0-9) ([1]; L397E, F420M Event 2, 25 g/ha + 1% (v/v) MSO): 0 (No Injury); injury (0-9) ([1]; L397E, F420M Event 2, 50 g/ha + 1% (v/v) MSO): 0 (No Injury); injury (0-9) ([1]; L397E, F420M Event 2, 100 g/ha + 1% (v/v) MSO): 0 (No Injury); injury (0-9) ([1]; L397E, F420V Event 1, 25 g/ha + 1% (v/v) MSO): 0 (No Injury); injury (0-9) ([1]; L397E, F420V Event 1, 50 g/ha + 1% (v/v) MSO): 0 (No Injury); injury (0-9) ([1]; L397E, F420V Event 1, 100 g/ha + 1% (v/v) MSO): 0 (No Injury); injury (0-9) ([1]; L397Q, F420M Event 3, 25 g/ha + 1% (v/v) MSO): 0 (No Injury); injury (0-9) ([1]; L397Q, F420M Event 3, 50 g/ha + 1% (v/v) MSO): 3; injury (0-9) ([1]; L397Q, F420M Event 3, 100 g/ha + 1% (v/v) MSO): 3 and 4; Tolerance Factor [2]: 810000; IC50 [3]: 173 pM; pest or weed control at 50 g/ha ([4]; Table ii, ALOMY_PPO2_R137L_F438V event F, 50 g ai/ha): 8%; pest or weed control at 100 g/ha ([4]; Table ii, ALOMY_PPO2_R137L_F438V event F, 100 g ai/ha): 20%; pest or weed control at 200 g/ha ([4]; Table ii, ALOMY_PPO2_R137L_F438V event F, 200 g ai/ha): 20%; pest or weed control at 50 g/ha ([4]; Table ii, ALOMY_PPO2_R137L_F438V event G, 50 g ai/ha): 8%; pest or weed control at 100 g/ha ([4]; Table ii, ALOMY_PPO2_R137L_F438V event G, 100 g ai/ha): 15%; pest or weed control at 200 g/ha ([4]; Table ii, ALOMY_PPO2_R137L_F438V event G, 200 g ai/ha): 8%; pest or weed control at 50 g/ha ([4]; Table ii, ALOMY_PPO2_TP_AMATU_PPO2_R128M_F420I event R, 50 g ai/ha): 40%; pest or weed control at 100 g/ha ([4]; Table ii, ALOMY_PPO2_TP_AMATU_PPO2_R128M_F420I event R, 100 g ai/ha): 60%; pest or weed control at 200 g/ha ([4]; Table ii, ALOMY_PPO2_TP_AMATU_PPO2_R128M_F420I event R, 200 g ai/ha): 80%; pest or weed control at 50 g/ha ([4]; Table ii, AMATU_PPO2_R128A_F420M event Q, 50 g ai/ha): 55%; pest or weed control at 100 g/ha ([4]; Table ii, AMATU_PPO2_R128A_F420M event Q, 100 g ai/ha): 60%; pest or weed control at 200 g/ha ([4]; Table ii, AMATU_PPO2_R128A_F420M event Q, 200 g ai/ha): 60%; pest or weed control at 50 g/ha ([4]; Table ii, AMATU_PPO2_R128M_F420I event K, 50 g ai/ha): 30%; pest or weed control at 100 g/ha ([4]; Table ii, AMATU_PPO2_R128M_F420I event K, 100 g ai/ha): 58%; pest or weed control at 200 g/ha ([4]; Table ii, AMATU_PPO2_R128M_F420I event K, 200 g ai/ha): 73%; pest or weed control at 50 g/ha ([4]; Table ii, AMATU_PPO2_TP_hemG event R, 50 g ai/ha): 30%; pest or weed control at 100 g/ha ([4]; Table ii, AMATU_PPO2_TP_hemG event R, 100 g ai/ha): 38%; pest or weed control at 200 g/ha ([4]; Table ii, AMATU_PPO2_TP_hemG event R, 200 g ai/ha): 65%; pest or weed control at 1 g/ha ([4]; Table ii, AMATU_PPO2_WT event Q, 1 g ai/ha): 25%; pest or weed control at 5 g/ha ([4]; Table ii, AMATU_PPO2_WT event Q, 5 g ai/ha): 88%; pest or weed control at 10 g/ha ([4]; Table ii, AMATU_PPO2_WT event Q, 10 g ai/ha): 100%; pest or weed control at 30 g/ha ([4]; Table ii, AMATU_PPO2_WT event Q, 30 g ai/ha): 100%; pest or weed control at 1 g/ha ([4]; Table ii, ARBTH WT MC24 non-transgenic, 1 g ai/ha + 1% MSO): 100%; pest or weed control at 5 g/ha ([4]; Table ii, ARBTH WT MC24 non-transgenic, 5 g ai/ha + 1% MSO): 100%; pest or weed control at 10 g/ha ([4]; Table ii, ARBTH WT MC24 non-transgenic, 10 g ai/ha + 1% MSO): 100%; pest or weed control at 30 g/ha ([4]; Table ii, ARBTH WT MC24 non-transgenic, 30 g ai/ha + 1% MSO): 100%; pest or weed control at 50 g/ha ([4]; Table ii, ARBTH WT MC24 non-transgenic, 50 g ai/ha + 1% MSO): 100%; pest or weed control at 80 g/ha ([4]; Table ii, ARBTH WT MC24 non-transgenic, 80 g ai/ha + 1% MSO): 100%; pest or weed control at 100 g/ha ([4]; Table ii, ARBTH WT MC24 non-transgenic, 100 g ai/ha + 1% MSO): 100%; pest or weed control at 200 g/ha ([4]; Table ii, ARBTH WT MC24 non-transgenic, 200 g ai/ha + 1% MSO): 100%; pest or weed control at 5 g/ha ([4]; Table ii, ARBTH_PPO1_S305L_Y426M event O, 5 g ai/ha): 0%; pest or weed control at 10 g/ha ([4]; Table ii, ARBTH_PPO1_S305L_Y426M event O, 10 g ai/ha): 0%; pest or weed control at 30 g/ha ([4]; Table ii, ARBTH_PPO1_S305L_Y426M event O, 30 g ai/ha): 0%; pest or weed control at 80 g/ha ([4]; Table ii, ARBTH_PPO1_S305L_Y426M event O, 80 g ai/ha): 95%; pest or weed control at 1 g/ha ([4]; Table ii, ARBTH_PPO1_WT event Q, 1 g ai/ha): 33%; pest or weed control at 5 g/ha ([4]; Table ii, ARBTH_PPO1_WT event Q, 5 g ai/ha): 99%; pest or weed control at 10 g/ha ([4]; Table ii, ARBTH_PPO1_WT event Q, 10 g ai/ha): 100%; pest or weed control at 30 g/ha ([4]; Table ii, ARBTH_PPO1_WT event Q, 30 g ai/ha): 100%; pest or weed control at 50 g/ha [4, 8]: 0%; pest or weed control at 100 g/ha [4, 9]: 0%; pest or weed control at 50 g/ha ([4]; Table iii, AMATU_PPO2_L397Q_F420V (unnamed lines), 50 g ai/ha): 60%; pest or weed control at 100 g/ha ([4]; Table iii, AMATU_PPO2_L397Q_F420V (unnamed lines), 100 g ai/ha): 80%; pest or weed control at 100 g/ha ([4]; Table iii, AMATU_PPO2_R128A_F420I (unnamed lines), 100 g ai/ha): 55%; pest or weed control at 50 g/ha ([4]; Table iii, AMATU_PPO2_R128A_F420V (unnamed lines), 50 g ai/ha): 75%; pest or weed control at 50 g/ha ([4]; Table iii, ARBTH WT MC 24 (non-transgenic), 50 g ai/ha + 1% MSO): 100%; pest or weed control at 100 g/ha ([4]; Table iii, ARBTH WT MC 24 (non-transgenic), 100 g ai/ha + 1% MSO): 100%; injury (%) [4, 8]: 0%; injury (%) [4, 9]: 0%; Tolerance Factor (R/S) [5]: 401; Tolerance Factor (R/S) [6]: 55; Tolerance Factor (R/S) [7]: 1718
